Laboratory results as given in US10836763B2, “5 to 7 membered heterocyclic amides as JAK inhibitors” (priority 2018, dated 2020).
Like-named read-outs stand apart in the source and are kept apart here.

System: IL-12 stimulated STAT4 phosphorylation in CD3+ T cells
Assay: Cellular JAK potency assay: inhibition of IL-12-induced pSTAT4
Type: cell-based
Details: Homo sapiens, T-cell, 0.5 h, read-out: pIC50, inhibition of IL-12-induced pSTAT4 (converted)
Procedure: Assay 16: Cellular JAK Potency Assay: Inhibition of IL-12-Induced pSTAT4
The potency of test compounds for inhibition of interleukin-12 (IL-12) stimulated STAT4 phosphorylation was measured in CD3-positive (CD3+) T cells derived from human whole blood (Stanford Blood Center) using flow cytometry. Because IL-12 signals through JAK, this assay provides a measure of JAK cellular potency.
CD3+ T cells were identified using a phycoerythrin (PE) conjugated anti-CD3 antibody (clone UCHT1, BD Biosciences), and an Alexa Fluor 647 conjugated anti-pSTAT4 antibody (clone 38/p-Stat4, BD Biosciences) was used to detect STAT4 phosphorylation.
Human peripheral blood mononuclear cells (PBMC) were isolated from human whole blood of healthy donors using a ficoll gradient. […] After incubation, cells were washed twice in FACS buffer before being analyzed using a MACSQuant flow cytometer (Miltenyi). To determine the inhibitory potency of the test compound, the median fluorescent intensity (MFI) of pSTAT4 was measured in CD3+ T cells. IC50 values were determined from analysis of the inhibition curves of MFI vs compound concentration. Data are expressed as pIC50 (negative decadic logarithm IC50) values.

Row | Structure (SMILES) | IC50 (CD3+ T cells, IL-12 10 ng/mL, 30 min, flow cytometry) [nM] | IC50 [nM]
1 | CCCN1Cc2[nH]c(-c3n[nH]c4cc(-c5ccc(O)cc5CC)ccc34)nc2C[C@H]1C(=O)N1CCN(CCO)CC1 [Compound 1, (S)-(2-(6-(2-ethyl-4-hydroxyphenyl)-1H-indazol-3-yl)-5-propyl-4,5,6,7-tetrahydro-3H-imidazo[4,5-c]pyridin-6-yl)(4-(2-hydroxyethyl)piperazin-1-yl)methanone] | 631 | 
2 | CCc1cc(O)ccc1-c1ccc2c(-c3nc4c([nH]3)CN(C(C)C)[C@H](C(=O)N3CCCN(C)CC3)C4)n[nH]c2c1 [Compound 4, (S)-(2-(6-(2-ethyl-4-hydroxyphenyl)-1H-indazol-3-yl)-5-isopropyl-4,5,6,7-tetrahydro-3H-imidazo[4,5-c]pyridin-6-yl)(4-methyl-1,4-diazepan-1-yl)methanone] |  | 1000
